Reference: patent US20080139534A1, “Bisbenzamidines and bisbenzamidoximes for the treatment of human African trypanosomiasis” (XAVIER UNIVERSITY OF LOUISIANA, priority 2006, published 2008)
Like-named read-outs stand apart in the source and are kept apart here. Marks after values point to notes of the source that are not given here.

Assays:
[1] = test system: T. b. rhodesiense KETRI 2002; assay: In vivo efficacy in infected mice, clinical isolate; design: species or system Trypanosoma brucei rhodesiense
Method: (§1) Female Swiss-Webster mice (weight, 20 g) were infected (intraperitoneally) with 2.5×10^5 trypanosomes from rat blood, and the infection was allowed to develop for 24 h before drug treatment was begun. Groups of three mice each were injected (intraperitoneally) with each drug concentration. All of the experiments included a group of untreated controls. […] Animals were monitored weekly for parasites in tail vein blood smears. Mice were considered cured if they survived more than 30 days after the death of the last control with no parasites in tail vein blood smears. MSD (mean survival in days) was also recorded for each group. It is the average time of survival of the animals in the group, exclusive of cured animals.
(§2) Mice were infected on day 1 with 2.5×10^5 trypanosomes and the infections allowed to progress 24 h. prior to dosing. Animals were dosed 1×/day i.p for 3 days. Cured animals survived >30 days beyond the death of untreated, infected controls. MSD=mean survival in days exclusive of cured animals. Dose as mg/kg/day.

[2] = test system: T. b. brucei Lab 110 EATRO; assay: In vitro trypanocidal activity, bloodforms in HMI-18 medium, Coulter counts; type: cell-based, Trypanosoma brucei brucei; conditions: 48 h exposure, bloodforms, read-out: Lab 100 EATRO IC50
Method: (§3) The compounds were tested against trypanosome isolates grown as blood forms in HMI-18 medium containing 20% horse serum in 24 well microplates at 37° C. in 5% CO2. Wells were inoculated with 1×10^5 trypanosomes. […] One-half the volume was replaced daily. Cell counts were made daily with a Coulter Counter, Model Z1 (Beckman Coulter, Miami, Fla., USA). Cells were diluted with Isoton I buffer (Beckman Coulter) and the aperture was standardized at 5.14 μm. Background checks were performed daily on 1:10 dilutions of medium. Counts, normalization, and coincident counts were accounted for by the standardized Coulter analysis program. Occasionally, hemocytometer counts were performed as a check on the validity of the Coulter program. IC50 values were determined after 48 h from semi-log plots and the values are the result of duplicate determinations. Initially a broad concentration curve was used and then a close concentration curve from which IC50 values were determined. Assays were done in duplicate and each point was the average of the two. Control cells grew to 5×10^6/ml.
(§4) Coulter counts were made daily and IC50 values determined after 48 hours exposure.

[3] = test system: T. b. brucei Lab 110 EATRO; assay: In vivo efficacy in infected mice; design: species or system Trypanosoma brucei brucei
Method: Female Swiss-Webster mice (weight, 20 g) were infected (intraperitoneally) with 2.5×10^5 trypanosomes from rat blood, and the infection was allowed to develop for 24 h before drug treatment was begun. Groups of three mice each were injected (intraperitoneally) with each drug concentration. All of the experiments included a group of untreated controls. […] Parasitemia of animals dying of infection averaged 0.5-1.0×10^9/mL of blood. These infections are very predictable and daily counts were not done because of the labor involved. […] Animals were monitored weekly for parasites in tail vein blood smears. Mice were considered cured if they survived more than 30 days after the death of the last control with no parasites in tail vein blood smears. MSD (mean survival in days) was also recorded for each group. It is the average time of survival of the animals in the group, exclusive of cured animals.
Mice were infected with 250,000 parasites and dosing commenced 24 h. post infection. Mice were separated into groups of three and given single i.p doses for 3 days unless otherwise noted. Infected untreated controls were used for each experiment. Mice were considered cured if surviving more than 30 days beyond death of controls without parasites in tail vein blood smears. MSD, mean survival in days, exclusive of cured animals.

[4] = test system: T. b. rhodesiense KETRI 1992; assay: In vivo efficacy in infected mice, clinical isolate; design: species or system Trypanosoma brucei rhodesiense
Method: as §1, §2

[5] = test system: T. b. rhodesiense KETRI 243; assay: In vitro trypanocidal activity, bloodforms in HMI-18 medium, Coulter counts; type: cell-based, Trypanosoma brucei rhodesiense; conditions: 48 h exposure
Method: as §3, §4

poly(dA-dT) = assay: Thermal denaturation study, DNA binding affinity (ΔTm); conditions: 1:5 compound to base pair ratio;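 further: shift in the midpoint temperature of the thermal melting curve of poly(dA-dT), each value the mean of two or more independent determinations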
Method: (§5) The binding affinity was measured by determining the change in the midpoint (Tm) of the thermal denaturation curves of calf thymus DNA as well as poly(dA-dT) at a 1:5 compound to base pair ratio.

calf thymus DNA = assay: as above; conditions: 1:5 compound to base pair ratio;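 further: shift in midpoint melting temperature of calf thymus DNA thermal denaturation curves caused by compound binding, values averaged over at least two determinations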
Method: as §5

[6] = KETRI 2002, 1 mg/kg/day i.p. for 3 days
[7] = KETRI 2002, 5 mg/kg/day i.p. for 3 days
[8] = KETRI 2002, 10 mg/kg/day i.p. for 3 days
[9] = KETRI 2002, 15 mg/kg/day i.p. for 3 days
[10] = mice, 1 mg/kg/day i.p. for 3 days
[11] = mice, 5 mg/kg/day i.p. for 3 days
[12] = mice, 10 mg/kg/day i.p. for 3 days
[13] = mice, 15 mg/kg/day i.p. for 3 days
[14] = KETRI 1992, 1 mg/kg/day i.p. for 3 days
[15] = KETRI 1992, 5 mg/kg/day i.p. for 3 days
[16] = KETRI 1992, 10 mg/kg/day i.p. for 3 days
[17] = KETRI 1992, 25 mg/kg/day i.p. for 3 days
[18] = mice, 1, 2.5, 5, 10, 15, 25 mg/kg/day i.p. for 3 days (all doses failed to cure)
[19] = mice, 1, 2.5, 5, 10, 15, 25 mg/kg/day i.p. for 3 days (all doses)
[20] = KETRI 2002, 25 mg/kg/day i.p. for 3 days
[21] = mice, 25 mg/kg/day i.p. for 3 days

| Structure (SMILES) | IC50 [2] [µM] | IC50 [5] [µM] | DNA Binding Δ Tm Poly (dA-dT) (poly(dA-dT)) [°C] | DNA Binding Δ Tm Calf thymus (calf thymus DNA) [°C] | other results |
| --- | --- | --- | --- | --- | --- |
| C=CCCc1nc(-c2ccc(NC(=O)CCCC(=O)Nc3ccc(-c4noc(CCC=C)n4)cc3)cc2)no1 [TH745, N,N′-Bis[4-(5-3,4-Butene-1,2,4-oxadiazol-3yl)phenyl]pentanediamide] | – | – | – | – | melting point: 168 to 170 °C |
| N=C(N)c1ccc(NC(=O)CCCCCC(=O)Nc2ccc(C(=N)N)cc2)cc1 [compound 0706] | 0.00162 | 0.00205 | – | – | MSD [1, 6]: >30 days; MSD [1, 7]: >30 days; MSD [1, 8]: >30 days; MSD [1, 9]: >30 days; MSD [3, 10]: >30 days; MSD [3, 11]: >30 days; MSD [3, 12]: >30 days; MSD [3, 13]: >30 days; #Cured/Total [4, 14]: 0/3; MSD [4, 14]: 14 days; #Cured/Total [4, 15]: 0/3; MSD [4, 15]: 18.3 days; #Cured/Total [4, 16]: 0/3; MSD [4, 16]: 18.6 days; #Cured/Total [4, 17]: 0/3; MSD [4, 17]: 19.3 days |
| CCCCCCNC(=N)c1ccc(N2CCN(c3ccc(C(=N)NCCCCCC)cc3)CC2)cc1.Cl.Cl [compound 0128] | 0.013 | 0.0239 | 10.1 | 10.7 | # Cured/#Treated (%) [3, 18]: 0/3^a; MSD [3, 19]: 5.3 to 10.6 days |
| N=C(N)c1ccc(OCc2ccccc2COc2ccc(C(=N)N)cc2)cc1 [compound 0513] | 0.00125 | 0.00255 | −0.1 | −0.2 | # Cured/#Treated (%) [3, 18]: 0/3^a; MSD [3, 19]: 5 days |
| CC(=O)O/N=C(\N)c1ccc(NC(=O)CCCC(=O)Nc2ccc(/C(N)=N/OC(C)=O)cc2)cc1 [TH724, N,N′-bis[4-(N-acetoxyamidino)phenyl]pentanediamide] | – | – | – | – | melting point: 225 to 228 °C |
| N=C(N)c1ccc(NC(=O)CCCCCCCCC(=O)Nc2ccc(C(=N)N)cc2)cc1 [compound 0709] | 0.002 | 0.0041 | – | – | #Cured/Total [1, 6]: 0/3; MSD [1, 6]: 18 days; MSD [1, 7]: 33 days; MSD [1, 8]: >30 days; MSD [1, 9]: >30 days; MSD [1, 20]: >30 days; MSD [3, 10]: 12 days; MSD [3, 11]: >30 days; MSD [3, 12]: >30 days; MSD [3, 21]: >30 days; #Cured/Total [4, 14]: 0/3; MSD [4, 14]: 12.6 days; #Cured/Total [4, 15]: 0/3; MSD [4, 15]: 13.7 days; #Cured/Total [4, 16]: 0/3; MSD [4, 16]: 15.7 days; #Cured/Total [4, 17]: 0/3; MSD [4, 17]: 26.6 days |
| CCCCCC(=O)ONC(=N)c1ccc(NC(=O)CCCC(=O)Nc2ccc(C(=N)NOC(=O)CCCCC)cc2)cc1 [TH742, N,N′-Bis[4-(N-Pentylcarbonyloxyamidino)phenyl]pentanediamide] | – | – | – | – | melting point: 182 to 184 °C |
| N=C(N)c1ccc(NC(=O)CCCCCCC(=O)Nc2ccc(C(=N)N)cc2)cc1 [compound 0705] | 0.0028 | 0.00145 | – | – | MSD [1, 6]: >30 days; MSD [1, 7]: >30 days; MSD [1, 8]: >30 days; MSD [1, 20]: >30 days; MSD [3, 10]: 10 days; MSD [3, 11]: >30 days; MSD [3, 12]: >30 days; MSD [3, 21]: >30 days; #Cured/Total [4, 14]: 0/3; MSD [4, 14]: 15.3 days; #Cured/Total [4, 15]: 0/3; MSD [4, 15]: 22.6 days; #Cured/Total [4, 16]: 0/3; MSD [4, 16]: 29.6 days |
| C(=NNc1ccccc1)c1ccc(N2CCN(c3ccc(C=NNc4ccccc4)cc3)CC2)cc1 [compound 0116] | 1.74 | 1.87 | 0.0 | −0.2 | – |
| CCC(C)CNC(=N)c1ccc(N2CCN(c3ccc(C(=N)NCC(C)CC)cc3)CC2)cc1.Cl.Cl (centres unmarked) [compound 0138] | 0.013 | 0.039 | 16.0 | 12.9 | – |
| N#Cc1ccc(N2CCN(c3ccc(C#N)cc3)CC2)cc1 [compound 0101] | 2.89 | 1.05 | −0.3 | 0.1 | – |
| CN1CCN(C)C1c1ccc(N2CCN(c3ccc(C4N(C)CCN4C)cc3)CC2)cc1 [compound 0108] | 6.8 | 2.32 | 1.8 | 2.4 | – |
| O=C(Nc1ccc(C2=NCCN2)cc1)C1CC1C(=O)Nc1ccc(C2=NCCN2)cc1 (centres unmarked) [8IM] | > 1 | 0.44 | 9.6 | 6.0 | – |
| Cl.Cl.N=C(NC1CC1)c1ccc(N2CCCN(c3ccc(C(=N)NC4CC4)cc3)CC2)cc1 [73C] | 0.87 | 0.81 | 23.6 | 15.3 | – |
| O=[N+]([O-])c1ccc(N2CCN(c3ccc([N+](=O)[O-])cc3)CC2)cc1 [compound 0119] | 0.137 | 0.25 | 0.0 | 0.1 | – |
| N=C(N)c1ccc(OCc2ccc(COc3ccc(C(=N)N)cc3)cc2)cc1 [compound 0508] | 0.000295 | 0.000665 | 18.0 | 12.5 | # Cured/#Treated (%) [3, 18]: 0/3^a; MSD [3, 19]: 5 to 17.3 days |
| Cl.Cl.N=C(N)c1ccc(N2CCCN(c3ccc(C(=N)N)cc3)CC2)cc1 [7AM] | 0.00215 | 0.0027 | 23.1 | 15.0 | – |
| CCCCCCCCCCCCNC(=N)c1ccc(N2CCN(c3ccc(C(=N)NCCCCCCCCCCCC)cc3)CC2)cc1.Cl.Cl [compound 0136] | 0.66 | 0.125 | 0.0 | 0.6 | – |
| N=C(N)c1ccc(COc2ccccc2OCc2ccc(C(=N)N)cc2)cc1 [compound 0519] | 0.0013 | 0.0021 | −0.1 | 0.1 | # Cured/#Treated (%) [3, 18]: 0/3^a; MSD [3, 19]: 5 days |
| c1ccc2[nH]c(-c3ccc(N4CCN(c5ccc(-c6nc7ccccc7[nH]6)cc5)CC4)cc3)nc2c1 [compound 0115, 1,4-bis[4-(1H-benzymidazol-2-yl)phenyl]piperazine] | – | – | 2.0 | 0.1 | IC50 ([2]; Trypanosoma brucei): 1.15 µM; IC50 ([5]; Trypanosoma brucei, RHODESIENSE): 5.8 µM |
| CCCCNC(=N)c1ccc(N2CCCN(c3ccc(C(=N)NCCCC)cc3)CC2)cc1.Cl.Cl [74N] | 0.18 | 0.079 | 13.3 | 11.8 | – |
| Cl.Cl.N=C(NC1CCCCCC1)c1ccc(N2CCN(c3ccc(C(=N)NC4CCCCCC4)cc3)CC2)cc1 [compound 0129] | 0.018 | 0.022 | 18.7 | 15.6 | # Cured/#Treated (%) [3, 10]: 0/3; MSD [3, 10]: 7.5 days; MSD [3, 11]: 9 days; MSD ([3]; mice, 7.5 mg/kg/day i.p. for 3 days): >30 days; MSD [3, 12]: >30 days; MSD [3, 13]: >30 days |
| CCNC(=N)c1ccc(N2CCN(c3ccc(C(=N)NCC)cc3)CC2)cc1.Cl.Cl [compound 0140] | 0.013 | 0.033 | 18.6 | 15.3 | # Cured/#Treated (%) [3, 10]: 0/3; MSD [3, 10]: 5 days; MSD [3, 11]: 18 days; MSD [3, 12]: 17 days |
